Key:
Assay in all cases: selective drug sensitivity score (sDSS, relative to normal bone marrow) (sDSS (score)); higher = more potent and effective on the cell line relative to normal bone marrow cells
Details in all cases: 72 h
KASUMI-10 = tested on: KASUMI-10
JURKAT = tested on: JURKAT
COG-LL-394h = tested on: COG-LL-394h
PF-382 = tested on: PF-382
COG-LL-317 = tested on: COG-LL-317
KOPN-8 = tested on: KOPN-8
MOLT-4 = tested on: MOLT-4
KASUMI-2 = tested on: KASUMI-2
NALM-16 = tested on: NALM-16
HPB-ALL = tested on: HPB-ALL
MHH-CALL-3 = tested on: MHH-CALL-3
COG-LL-402h = tested on: COG-LL-402h
KASUMI-9 = tested on: KASUMI-9
MHH-CALL-4 = tested on: MHH-CALL-4
380 = tested on: 380
CCRF-CEM = tested on: CCRF-CEM
NALM-6 = tested on: NALM-6
ALL-SIL = tested on: ALL-SIL
TMD5 = tested on: TMD5
697 = tested on: 697
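Further: ALL cell lines in 384-well plates, five doses spanning 10,000-fold, each plate scaled between vehicle and 100 µmol/L benzalkonium chloride controls, sDSS an adapted area-under-curve metric.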

Compound | selective drug sensitivity score (KASUMI-10) | selective drug sensitivity score (JURKAT) | selective drug sensitivity score (COG-LL-394h) | selective drug sensitivity score (PF-382) | selective drug sensitivity score (COG-LL-317) | selective drug sensitivity score (KOPN-8) | selective drug sensitivity score (MOLT-4) | selective drug sensitivity score (KASUMI-2) | selective drug sensitivity score (NALM-16) | selective drug sensitivity score (HPB-ALL) | selective drug sensitivity score (MHH-CALL-3) | selective drug sensitivity score (COG-LL-402h) | selective drug sensitivity score (KASUMI-9) | selective drug sensitivity score (MHH-CALL-4) | selective drug sensitivity score 380 | selective drug sensitivity score (CCRF-CEM) | selective drug sensitivity score (NALM-6) | selective drug sensitivity score (ALL-SIL) | selective drug sensitivity score (TMD5) | selective drug sensitivity score 697
CN[C@@H](C)C(=O)N[C@H]1CN(C(=O)CC(C)C)CC[C@H]2CC[C@@H](C(=O)NC(c3ccccc3)c3ccccc3)N2C1=O [AT-406] (top concentration 10000 nM) | -1.26 | -1.26 | 5.84 | -1.26 | 0.64 | -1.26 | -1.26 | 0.34 | -1.26 | -1.26 | -1.26 | -0.86 | -1.26 | -1.26 | -1.26 | 1.34 | -1.26 | -1.26 | 6.54 | -1.26
Nc1nc2cc(-c3ccc4ncc(C(=O)N5CCOCC5)n4c3)ccc2o1 [Serabelisib] (top concentration 10000 nM) | -1.54 | -1.54 | -1.54 | 0.36 | -1.54 | 2.56 | -1.54 | 2.96 | -1.44 | 0.66 | -1.54 | -0.14 | 2.56 | 0.46 | -0.44 | 0.76 | -1.44 | 0.36 | -1.54 | 2.96
O=C1c2c(O)ccc(O)c2C(=O)c2c(NCCNCCO)ccc(NCCNCCO)c21 [Mitoxantrone] (top concentration 1000 nM) | 12.7 | -3.86 | 13.2 | -1.86 | 16.2 | 16.3 | 8.34 | 12.3 | -5.06 | -3.06 | 14.4 | 15.8 | 11.8 | 11.1 | 16.3 | 10.8 | 2.44 | 7.44 | 4.54 | 15.6
CC1=C2C[C@H]3[C@@H](CC[C@@H]4C[C@H](NS(C)(=O)=O)CC[C@@]43C)[C@@H]2CC[C@@]2(C1)O[C@@H]1C[C@H](C)CN[C@H]1[C@H]2C [Saridegib] (top concentration 10000 nM) | -1.16 | -0.56 | 5.34 | 0.34 | -1.16 | -1.16 | -0.86 | 5.04 | 0.04 | 0.34 | 0.34 | 0.94 | -0.06 | 3.14 | -0.96 | -0.46 | -1.16 | -1.16 | 1.74 | 1.24
CNC(=O)c1cccc2cc(Oc3ccnc4cc(OCC5(N)CC5)c(OC)cc34)ccc12 [Lucitanib] (top concentration 10000 nM) | 5.18 | 2.78 | 1.58 | 1.38 | 2.78 | 6.38 | 4.18 | 3.48 | -0.62 | 3.18 | -0.62 | 3.58 | 6.28 | -0.62 | 1.18 | 3.08 | 1.58 | 4.88 | 0.98 | 5.48
Cc1cccc(-c2nn3c(c2-c2ccnc4ccc(C(N)=O)cc24)CCC3)n1 [Galunisertib] (top concentration 1000 nM) | 0 | 0 | 0 | 0 | 0 | 0 | 0 | 0 | 0 | 0 | 0 | 0 | 1.3 | 0 | 0 | 0 | 0 | 0 | 0 | 0
Cc1nc(C(=O)NCC(=O)O)c(O)c2ccc(Oc3ccccc3)cc12 [Roxadustat] (top concentration 10000 nM) | -1.12 | -0.42 | -1.12 | -0.52 | -1.12 | -0.92 | -1.12 | -0.92 | -1.12 | 5.28 | -1.12 | -1.12 | -0.82 | -1.12 | 7.48 | -1.02 | -1.12 | -1.12 | -1.12 | -0.92
CC(C)(O)CC(=O)NCCn1ccc2ncnc(Nc3ccc(Oc4cccc(C(F)(F)F)c4)c(Cl)c3)c21 [TAK-285] (top concentration 2500 nM) | 0 | 0 | 0 | 0 | 0 | 0 | 0 | 0 | 0 | 0 | 0 | 0 | 3.3 | 0 | 0 | 0.2 | 0 | 0 | 3.1 | 0
CC(C)C(=O)Nc1ccc([N+](=O)[O-])c(C(F)(F)F)c1 [Flutamide] (top concentration 10000 nM) | -0.56 | 1.84 | -0.26 | 0.14 | -0.56 | 4.24 | -0.46 | 0.34 | -0.56 | -0.56 | -0.56 | -0.56 | 1.64 | 1.24 | -0.56 | -0.16 | -0.46 | -0.26 | 6.64 | 1.94
CNC(=O)c1ccc2cc([C@@]3(O)CCn4cncc43)ccc2c1 [Orteronel] (top concentration 10000 nM) | 0 | 0 | 0 | 0 | 0 | 1 | 0 | 4.6 | 0 | 0 | 0 | 0 | 0 | 0 | 1.4 | 0 | 0 | 0 | 0 | 0
NC(=S)N/N=C/c1ncccc1N [Triapine] (top concentration 10000 nM) | 6.88 | 2.28 | 0.88 | 1.28 | 0.88 | 1.78 | 1.98 | 2.38 | 2.68 | 1.58 | 2.08 | 9.28 | 3.98 | 2.18 | 5.88 | 2.68 | 4.48 | 6.78 | 2.28 | 5.88
C[C@@H](Oc1cc(-c2cnn(C3CCNCC3)c2)cnc1N)c1c(Cl)ccc(F)c1Cl [Crizotinib] (top concentration 1000 nM) | -0.54 | -0.54 | 0.86 | -0.54 | -0.54 | -0.54 | -0.54 | -0.54 | -0.54 | -0.54 | -0.54 | -0.54 | -0.54 | -0.54 | -0.54 | -0.54 | 0.96 | 5.46 | 1.66 | -0.24
C[C@]12CC[C@@H]3c4ccc(O)cc4C[C@@H](CCCCCCCCC[S+]([O-])CCCC(F)(F)C(F)(F)F)[C@H]3[C@@H]1CC[C@@H]2O (stereo not given in full) [Fulvestrant] (top concentration 1000 nM) | 0 | 0 | 0 | 0 | 0 | 0 | 0 | 0 | 0 | 0.2 | 0 | 0 | 0 | 0 | 0 | 0 | 0 | 5.3 | 2.3 | 0
CN1CCC(COc2cnc(-c3cccc(Cn4nc(-c5cccc(C#N)c5)ccc4=O)c3)nc2)CC1 [Tepotinib] (top concentration 1000 nM) | -0.08 | -0.08 | -0.08 | -0.08 | 0.52 | -0.08 | -0.08 | 2.02 | -0.08 | -0.08 | -0.08 | -0.08 | -0.08 | -0.08 | -0.08 | -0.08 | -0.08 | -0.08 | -0.08 | -0.08
Nc1ncnc2c1c(COc1cccc(Cl)c1)nn2C1CCOCC1 (top concentration 10000 nM) | -0.64 | 0.06 | -0.64 | -0.24 | -0.64 | 5.66 | 0.16 | 2.46 | -0.64 | 1.26 | 0.66 | 1.56 | 1.06 | -0.64 | 5.46 | -0.44 | -0.54 | -0.64 | -0.64 | 0.26
C[C@@H]1C[C@H]2[C@@H]3CCC4=CC(=O)C=C[C@]4(C)[C@@]3(F)[C@@H](O)C[C@]2(C)[C@@]1(O)C(=O)CO [Dexamethasone] (top concentration 10000 nM) | -1.52 | -1.52 | -1.52 | 1.48 | 11.3 | 33.9 | 1.48 | 14.6 | -1.52 | 3.18 | 40.3 | 29.3 | 1.78 | 36.7 | 32.2 | 13.9 | 30.8 | 18.6 | 14.9 | 32.2
N#Cc1ccnc(N2C(=O)CC[C@H]2C(=O)N(c2cncc(F)c2)[C@H](C(=O)NC2CC(F)(F)C2)c2ccccc2Cl)c1 [Ivosidenib] (top concentration 10000 nM) | 0 | 0.7 | 0 | 0.8 | 1.8 | 0.2 | 0.2 | 0.6 | 0 | 0 | 0 | 0 | 0.9 | 0 | 3 | 1 | 0 | 2 | 1.8 | 0.1
C#Cc1cccc(Nc2ncnc3cc4c(cc23)OCCOCCOCCO4)c1 [Icotinib] (top concentration 10000 nM) | 0 | 0 | 0 | 0.5 | 0 | 5.7 | 0.2 | 2.9 | 0 | 0 | 1.3 | 0 | 4.9 | 0 | 3.6 | 0.3 | 0 | 0.8 | 7.5 | 3.2
